# Results: patent publication US20150105252A1, “SUBSTITUTED PYRAZOLES AS HERBICIDES” (E I DU PONT DE NEMOURS AND COMPANY, priority 2013, published 2015)
# Tests used:
# foxtail, giant = assay: Test A preemergence; type: in vivo, Setaria faberii; settings: preemergence
# Procedure, shortened: (§1)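 Greenhouse test in loam soil/sand blend; compounds formulated in non-phytotoxic solvent with surfactant, applied as preemergence directed soil spray or postemergence to plants 2–10 cm tall at one- to two-leaf stage. Injury rated visually versus untreated controls after approximately 10 days on a 0 (no effect) to 100 (complete control) scale.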
# pigweed [1] = assay: Test A preemergence; type: in vivo, Amaranthus retroflexus; settings: preemergence
# Procedure, shortened: as §1
# corn [2] = assay: Test A preemergence; type: in vivo, Zea mays; settings: preemergence
# Procedure, shortened: as §1
# wheat [3] = assay: Test A postemergence; type: in vivo, Triticum aestivum
# Procedure, shortened: as §1
# wheat [4] = assay: Test C preemergence; type: in vivo, Triticum aestivum; settings: for Plant response rating (scale of 0 to 100), Wheat: Preemergence, 250 g ai/ha; for Wheat plant response rating / Plant response rating, Wheat: preemergence; for Plant response rating, Wheat: 62 g ai/ha, scale 0 to 100, 0 = no effect, 100 = complete control
# Procedure, shortened: (§2)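 Greenhouse pot test: preemergence application onto freshly seeded loam/sand mix, postemergence application onto seedlings (1–4 leaves, 2–18 cm) in peat-vermiculite substrate. Responses scored visually 13 to 15 days later relative to controls, where 0 means no effect and 100 means complete control; a dash indicates no result.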
# corn [5] = assay: Test C preemergence; type: in vivo, Zea mays; settings: for Plant response rating (scale of 0 to 100), Corn: Preemergence, 250 g ai/ha; for Corn plant response rating / Plant response rating, Corn: preemergence; for Plant response rating, Corn: 62 g ai/ha, scale 0 to 100, 0 = no effect, 100 = complete control
# Procedure, shortened: as §2
# crabgrass, large = assay: Test C preemergence; type: in vivo, Digitaria sanguinalis; settings: for Plant response rating (scale of 0 to 100), Crabgrass, Large: Preemergence, 250 g ai/ha; for Crabgrass, Large plant response rating / Plant response rating, Crabgrass, Large: preemergence; for Plant response rating, Crabgrass, Large: 62 g ai/ha, scale 0 to 100, 0 = no effect, 100 = complete control
# Procedure, shortened: as §2
# johnsongrass = assay: Test C preemergence; type: in vivo, Sorghum halepense; settings: for Plant response rating (scale of 0 to 100), Johnsongrass: Preemergence, 250 g ai/ha; for Johnsongrass plant response rating / Plant response rating, Johnsongrass: preemergence; for Plant response rating, Johnsongrass: 62 g ai/ha, scale 0 to 100, 0 = no effect, 100 = complete control
# Procedure, shortened: as §2
# morningglory = assay: Test C preemergence; type: in vivo, Ipomoea coccinea; settings: for Plant response rating (scale of 0 to 100), Morningglory: Preemergence, 250 g ai/ha; for Morningglory plant response rating / Plant response rating, Morningglory: preemergence; for Plant response rating, Morningglory: 62 g ai/ha, scale 0 to 100, 0 = no effect, 100 = complete control
# Procedure, shortened: as §2
# pigweed [6] = assay: Test C preemergence; type: in vivo, Amaranthus retroflexus; settings: for Plant response rating (scale of 0 to 100), Pigweed: Preemergence, 250 g ai/ha; for Pigweed plant response rating / Plant response rating, Pigweed: preemergence; for Plant response rating, Pigweed: 62 g ai/ha, scale 0 to 100, 0 = no effect, 100 = complete control
# Procedure, shortened: as §2
# barnyardgrass = assay: Test C preemergence; type: in vivo, Echinochloa crus-galli; settings: for Plant response rating (scale of 0 to 100), Barnyardgrass: Preemergence, 250 g ai/ha; for Barnyardgrass plant response rating / Plant response rating, Barnyardgrass: preemergence; for Plant response rating, Barnyardgrass: 62 g ai/ha, scale 0 to 100, 0 = no effect, 100 = complete control
# Procedure, shortened: as §2
# waterhemp = assay: Test C preemergence; type: in vivo, Amaranthus rudis; settings: for Plant response rating (scale of 0 to 100), Waterhemp: Preemergence, 250 g ai/ha; for Waterhemp plant response rating / Plant response rating, Waterhemp: preemergence; for Plant response rating, Waterhemp: 62 g ai/ha, scale 0 to 100, 0 = no effect, 100 = complete control
# Procedure, shortened: as §2
# velvetleaf = assay: Test C preemergence; type: in vivo, Abutilon theophrasti; settings: for Plant response rating (scale of 0 to 100), Velvetleaf: Preemergence, 250 g ai/ha; for Velvetleaf plant response rating / Plant response rating, Velvetleaf: preemergence; for Plant response rating, Velvetleaf: 62 g ai/ha, scale 0 to 100, 0 = no effect, 100 = complete control
# Procedure, shortened: as §2
# [7] = 125 g ai/ha, visual injury, 0 to 100 scale, approx. 10 days
# [8] = 500 g ai/ha, visual injury after approx. 10 days, 0 to 100 scale (0 no effect, 100 complete control)
# [9] = Postemergence, 500 g ai/ha, visual rating after approx. 10 days, 0 to 100 scale (0 no effect, 100 complete control)
# [10] = postemergence, 125 g ai/ha, about 10 days, visual rating on 0 to 100 scale (0 no effect, 100 complete control)
# [11] = 31 g ai/ha, visual rating, scale 0 to 100 (0 no effect, 100 complete control), 13 to 15 days
# [12] = 125 g ai/ha, scale 0 to 100, 0 is no effect, 100 is complete control
# [13] = 31 g ai/ha, scale 0 to 100 (0 no effect, 100 complete control), 13 to 15 days
smiles,measurement,setting,value
CCc1cc(C(=O)NC(C)C)nn1Cc1ccnc(C(F)(F)F)c1 [Compound 103],"Foxtail, Giant plant response rating","foxtail, giant; [7]",100
same,"Foxtail, Giant plant response rating","foxtail, giant; [8]",100
same,Pigweed plant response rating,pigweed [1]; [7],100
same,Pigweed plant response rating,pigweed [1]; [8],100
same,Corn plant response rating,corn [2]; [7],70
same,Corn plant response rating,corn [2]; [8],90
same,Wheat plant response rating,wheat [3]; [9],90
same,Wheat plant response rating,wheat [3]; [10],80
same,"Plant response rating (scale of 0 to 100), Wheat",wheat [4],98
same,Wheat plant response rating,wheat [4]; [11],10
same,"Plant response rating, Wheat",wheat [4]; 13 to 15 days,90
same,Wheat plant response rating,wheat [4]; [12],95
same,"Plant response rating (scale of 0 to 100), Corn",corn [5],100
same,Corn plant response rating,corn [5]; [11],75
same,"Plant response rating, Corn",corn [5]; 13 to 15 days,100
same,Corn plant response rating,corn [5]; [12],100
same,"Plant response rating (scale of 0 to 100), Crabgrass, Large","crabgrass, large",100
same,"Crabgrass, Large plant response rating","crabgrass, large; [11]",100
same,"Plant response rating, Crabgrass, Large","crabgrass, large; 13 to 15 days",100
same,"Crabgrass, Large plant response rating","crabgrass, large; [12]",100
same,"Plant response rating (scale of 0 to 100), Johnsongrass",johnsongrass,100
same,Johnsongrass plant response rating,johnsongrass; [11],85
same,"Plant response rating, Johnsongrass",johnsongrass; 13 to 15 days,100
same,Johnsongrass plant response rating,johnsongrass; [12],100
same,"Plant response rating (scale of 0 to 100), Morningglory",morningglory,100
same,Morningglory plant response rating,morningglory; [11],100
same,"Plant response rating, Morningglory",morningglory; 13 to 15 days,100
same,Morningglory plant response rating,morningglory; [12],100
same,"Plant response rating (scale of 0 to 100), Pigweed",pigweed [6],100
same,Pigweed plant response rating,pigweed [6]; [11],100
same,"Plant response rating, Pigweed",pigweed [6]; 13 to 15 days,100
same,Pigweed plant response rating,pigweed [6]; [12],100
same,"Plant response rating (scale of 0 to 100), Barnyardgrass",barnyardgrass,100
same,Barnyardgrass plant response rating,barnyardgrass; [13],100
same,"Plant response rating, Barnyardgrass",barnyardgrass; 13 to 15 days,100
same,Barnyardgrass plant response rating,barnyardgrass; [12],100
same,"Plant response rating (scale of 0 to 100), Waterhemp",waterhemp,100
same,Waterhemp plant response rating,waterhemp; [11],100
same,"Plant response rating, Waterhemp",waterhemp; 13 to 15 days,100
same,Waterhemp plant response rating,waterhemp; [12],100
same,"Plant response rating (scale of 0 to 100), Velvetleaf",velvetleaf,100
same,Velvetleaf plant response rating,velvetleaf; [11],100
same,"Plant response rating, Velvetleaf",velvetleaf; 13 to 15 days,100
same,Velvetleaf plant response rating,velvetleaf; [12],100
CCOc1cc(C(=O)NCC(F)(F)F)nn1Cc1ccnc(C(F)(F)F)c1 [Compound 104],"Foxtail, Giant plant response rating","foxtail, giant; [7]",100
same,"Foxtail, Giant plant response rating","foxtail, giant; [8]",100
same,Pigweed plant response rating,pigweed [1]; [7],100
same,Pigweed plant response rating,pigweed [1]; [8],100
same,Corn plant response rating,corn [2]; [7],60
same,Corn plant response rating,corn [2]; [8],80
same,Wheat plant response rating,wheat [3]; [9],70
same,Wheat plant response rating,wheat [3]; [10],70
same,"Plant response rating (scale of 0 to 100), Wheat",wheat [4],90
same,Wheat plant response rating,wheat [4]; [11],40
same,"Plant response rating, Wheat",wheat [4]; 13 to 15 days,60
same,Wheat plant response rating,wheat [4]; [12],90
same,"Plant response rating (scale of 0 to 100), Corn",corn [5],98
same,Corn plant response rating,corn [5]; [11],40
same,"Plant response rating, Corn",corn [5]; 13 to 15 days,65
same,Corn plant response rating,corn [5]; [12],98
same,"Plant response rating (scale of 0 to 100), Crabgrass, Large","crabgrass, large",100
same,"Crabgrass, Large plant response rating","crabgrass, large; [11]",100
same,"Plant response rating, Crabgrass, Large","crabgrass, large; 13 to 15 days",100
same,"Crabgrass, Large plant response rating","crabgrass, large; [12]",100
same,"Plant response rating (scale of 0 to 100), Johnsongrass",johnsongrass,100
same,Johnsongrass plant response rating,johnsongrass; [11],90
same,"Plant response rating, Johnsongrass",johnsongrass; 13 to 15 days,100
same,Johnsongrass plant response rating,johnsongrass; [12],100
same,"Plant response rating (scale of 0 to 100), Morningglory",morningglory,100
same,Morningglory plant response rating,morningglory; [11],100
same,"Plant response rating, Morningglory",morningglory; 13 to 15 days,100
same,Morningglory plant response rating,morningglory; [12],100
same,"Plant response rating (scale of 0 to 100), Pigweed",pigweed [6],100
same,Pigweed plant response rating,pigweed [6]; [11],100
same,"Plant response rating, Pigweed",pigweed [6]; 13 to 15 days,100
same,Pigweed plant response rating,pigweed [6]; [12],100
same,"Plant response rating (scale of 0 to 100), Barnyardgrass",barnyardgrass,100
same,Barnyardgrass plant response rating,barnyardgrass; [13],100
same,"Plant response rating, Barnyardgrass",barnyardgrass; 13 to 15 days,100
same,Barnyardgrass plant response rating,barnyardgrass; [12],100
same,"Plant response rating (scale of 0 to 100), Waterhemp",waterhemp,100
same,Waterhemp plant response rating,waterhemp; [11],100
same,"Plant response rating, Waterhemp",waterhemp; 13 to 15 days,100
same,Waterhemp plant response rating,waterhemp; [12],100
same,"Plant response rating (scale of 0 to 100), Velvetleaf",velvetleaf,100
same,Velvetleaf plant response rating,velvetleaf; [11],100
same,"Plant response rating, Velvetleaf",velvetleaf; 13 to 15 days,100
same,Velvetleaf plant response rating,velvetleaf; [12],100
